{"source": "paper PMC9046208", "about": "“Foldamers reveal and validate therapeutic targets associated with toxic α-synuclein self-assembly” (Nature Communications, 2022)", "key": {"[1]": {"test_system": "primary rat hippocampal neurons", "assay": "LDH release assay, primary rat hippocampal neurons", "format": "cell-based", "conditions": "PD + SK-129 PMCA sample, 21 days; PD sample ~8-fold higher than control", "method": "The rat embryos (both male and female) at embryonic day 18 were used to prepare the primary neurons according to previously published protocol. After removing all the meninges, the hippocampi were isolated from the fetal rat brain and kept in the dissection solution (1x HBSS, 10 mM HEPES buffer, 5 µg/mL Gentamicin, pH 7.3, Thermo Fisher Scientific, Waltham, MA). The hippocampi were minced and treated in the dissection solution containing 20 U/ml Papain (Worthington Biochemical Corp., Lakewood, NJ) and triturated in 50 µg/ml Dnase I (Sigma-Aldrich, St.Louis, MO). The isolated cells were plated on 1 mg/mL Poly-L-Lysine (Sigma-Aldrich, St.Louis, MO) coated μ-slide eight-well plate (Ibidi, Munich, Germany) at 200,000 cells/mL in neuron plating medium, which includes Minimum Essential Media (MEM)(Thermo Fisher Scientific, Waltham, MA) supplemented with 5% FBS (Thermo Fisher Scientific, Waltham, MA) and glucose (Sigma-Aldrich, St.Louis, MO). […]\nThe LDH assay was performed on the primary neurons treated with various conditions and incubated for 21 DIV. The release of LDH was measured using a Cytotox 96 Non-Radioactive Cytotoxicity Assay kit (Promega, Madison, WI) by following the instructions provided by the manufacturers. […] The absorbance of the media in the wells was measured at 490 nm using a 96-well plate reader."}, "NL5901": {"test_system": "NL5901", "assay": "αS-YFP inclusion count in C elegans NL5901", "format": "in vivo", "conditions": "NL5901, 15 μM SK-129, day 8 of adulthood; untreated ~33", "method": "The assay was carried out based on a previous protocol[57] with slight modifications. On day one, N2 and NL5901 strains were synchronized through the bleaching process involving egglay and the incubation of the eggs at an ambient temperature (~23 °C) on a solution of 3 mL NGM media in 60 mm culture plates (CytoOne, USA Scientific, Ocala, FL). The plates were seeded with 300 µL OP50 at an O.D. of 0.5 for 30 h. Simultaneously, a solution of 15 µM SK-129 (Stock solution concentration = 10 mM in DMSO) was made in M9 buffer and added to two sterilized 35 mm NGM solid media plates (Fisher Scientific, Pittsburgh, PA). The plates were already containing 2 mL of NGM solid media and 75 µM Fluorodeoxyuridine (FUDR) to prevent offspring in the worms. […] On day five, motility assay was conducted for worms under different conditions in duplicate using a WMicroTracker Arena plate reader (Phylumtech, Argentina) at ~23 °C for 1 h per day over a period of 12 days. […]\nThe worms from the NL5901 strain were treated in the absence and presence of SK-129 (15 µM SK-129, stock solution concentration = 10 mM in DMSO) as described in the paralysis experiment. […] For each experiment, at least 15 worms were used, and the inclusions were counted manually, and each condition consisted of at least four independent experiments."}}}
{"smiles": "COC(=O)c1cc(OCC(=O)O)c2cccc(NC(=O)c3cc(OC(C)C)c4cccc(NC(=O)c5cc(OCC(=O)O)c6cccc(NC(=O)c7cc(OC(C)C)c8cccc([N+](=O)[O-])c8n7)c6n5)c4n3)c2n1", "note": "[SK-129]", "values": [{"measurement": "neurotoxicity (LDH release)", "setting": "[1]", "value": "did not observe any significant neurotoxicity"}, {"measurement": "number of αS-YFP inclusions", "setting": "NL5901", "value": "8–9 inclusions/C elegans"}]}
